The results in this text go back to patent US20230265389A1, “METHOD OF TRANSFECTING MACROPHAGES” (The University Court of The University of Edinburgh, priority 2020, published 2023).

Data set [1] relates to human monocyte-derived macrophages. Nature of the data set: Phase/contrast microscopy of transfected macrophages cultured with STING inhibitor. Type of data set: cell-based. The source says: (D) In vitro phagocytosis assay of untransfected hMDMs (control) versus GFP-transfected macrophages treated with BX-795 (GFP + BX-795), with M2-like polarising factors (GFP + BX-795 + IL4/IL13 or IL10) or DMSO control (GFP). (E) Serum liver function tests and histological analysis of picrosirius red (PSR) staining of collagen in chronic CCl4mice treated with cryopreserved hMDM (cryo), GFP-transfected hMDM treated with DMSO (GFP), GFP-transfected hMDM treated with BX-795 (GFP+B) or PBS vehicle (vehicle). *p<0.05 one-way ANOVA.
Monocyte-derived macrophages were harvested, counted and resuspended at a density of 5 × 10^7 cells/mL of CliniMACS Electroporation Buffer (Miltenyi). 25-100 µg/mL of pMax-GFP plasmid (Lonza) was mixed with the cell suspension for electroporation. For electroporation, 100 µl of cell/plasmid mix was introduced into 0.2 cm electroporation cuvettes and electroporation conducted with the CliniMACS Prodigy Electroporator (Miltenyi). Parameters assessed were 1st pulse voltage and type, and 2nd pulse voltage, type and length. Following electroporation, cells were cultured as above, with or without the STING inhibitor BX-795 (Invivogen) up to a concentration of 10 µM.

For data set [2], the system named is hMDMs. Nature of the data set: Phagocytosis assay with pHrodo E. coli red beads. Type of data set: cell-based, human. Particulars: GFP-transfected hMDMs relative to untransfected hMDMs. As to the method:
Cells were seeded in 96 well plates at a density of 200,000 per well in triplicate wells and left to adhere overnight. The following day, medium was aspirated and replaced with TexMACS medium containing NucBlue reagent (Invitrogen) and incubated for 30 min at 37° C. to stain nuclei. Medium was aspirated, cells washed in PBS, and then 100 µl PBS was added to cells. 100 µl of pHrodo E. coli red beads (diluted 1:10 in PBS) was added to the cells, and the cells were observed using an Operetta (PerkinElmer) to photograph fluorescence every 5 minutes over 145 minutes using a 40X objective. Images were analysed using Columbus. Nuclei were identified by NucBlue staining, and pHrodo red fluorescence intensity was measured in a cytoplasmic ring region around the nucleus. Fluorescence is reported as average pHrodo red fluorescence per nucleus.

For `O=C(NCCCNc1nc(Nc2cccc(NC(=O)N3CCCC3)c2)ncc1I)c1cccs1` [BX-795], the “cell health and GFP expression” value in data set [1] (inhibitor at 10 µM) is “some loss of cells”; in data set [1] (inhibitor up to 8 µM), “remained healthy and GFP-expressing”. In addition, the “phagocytic capacity (average fluorescence of pHRodo beads per cell), of non-genetically modified hMDMs” value in data set [2] is “approximately 66%”.
